Test results from patent US20190070170A1, “METHOD OF S[…]-1” (Macau University of Science and Technology, priority 2017, published 2019).

What was measured:
IL-6 = IL-6 level in LPS-stimulated rat peritoneal macrophages (ELISA); format: cell-based; conditions: pretreatment 1 h, LPS 1 μg/ml 24 h
Protocol: Sprague-Dawley (SD) rats from the University of Hong Kong were housed in cages with free access to food and water. Peritoneal macrophages of SD rats were isolated as described in Liu J. et al., Pharmacological research 2016, 111:303-315. Briefly, untreated rats were sacrificed and after laparotomy, about 50 ml cold sterile Hank's balanced salt solution (HBSS) was used to lavage the peritoneal cavity at twice, and then the peritoneal lavage fluid was collected and centrifuged at 1500 rpm for 10 min. The cell pellets was suspended at a density 1.5×10^6 cells/ml in pre-hearted DMEM medium with 10% heat-inactivated FBS, penicillin G (100 units/ml), streptomycin ([…]), and L-glutamine (2 mM), followed by seeding in 6-well plates at a density of 4.5×10^6 cells and incubation for 2 h. Then the medium were discarded to remove the non-adherent cells. The adherent cells were further washed for two times with pre-heated DMEM medium to remove floating cells. Next, cells were pre-treated with various concentration of SIN for 1 h, followed by stimulation with LPS (1 μg/ml).
RAW264.7 cells and rat peritoneal macrophages were seeded in a 96-well plate at density of 1.4×10^4 and 1.5×10^5 cells, respectively. […] The optical density was measured at 570 nm against a reference wavelength of 650 nm using a microplate UV/VIS spectrophotometer (Tecan, Mannedorf, Switzerland). […]

COX-1 = COX-1 protein in microsomes of inflamed paw of carrageenan-induced rats (western blotting); format: in vivo, SD rats; conditions: SIN or DEX pretreatment i.p.
Protocol: The model of carrageenan-induced paw edema was performed with SD rats (150-200 g). The carrageenan-induced paw edema was performed in SD rats (150-200 g) by subcutaneously injection λ-carrageenan as described in Liu J. et al., Pharmacological research 2016, 111 and Luo P. et al., J. Pharmacol. Exp. Ther. 2010. Briefly, rats were fasted for 12 h before experiment and intraperitoneal injection was performed with three different doses (25, 50 and 100 mg/kg) of SIN, or DEX (reference drug, 2 mg/kg) or 0.9% saline (Vehicle and Normal group rats), at 2 h prior to the induction of paw edema. […] Paw volumes (ml) of right hind foot of each rat were measured using a plethysmometer (type 7150; UGO Basile, Comerio, Italy) at 0 h (before carrageenan injection) and then again at 1, 2, 3 and 4 h after the injection of carrageenan or saline. The percentage of paw edema of the right hind paws of all groups were calculated at different time points by the following equation: […]
Whole-cell and nuclear proteins were obtained using RIPA lysis buffer (CST, Boston, Mass., USA) and Nuclear and Cytoplasmic Extraction Reagents kit from Thermo Scientific (Asheville, N.C., USA), respectively. […] The levels of protein expression were measured using Odyssey v3.0 software from Li-COR (Lincoln, Nebr., USA).

mPGES-1 = mPGES-1 protein expression in IL-1β-stimulated A549 cells (western blotting); format: cell-based; conditions: IL-1β with SIN or DEX for 48 h
Protocol: RAW264.7 and A549 cell lines were obtained from American Type Culture Collection (ATCC, Manassas, Va., USA) and maintained in DMEM (RAW264.7) or 1640 (A549) medium containing 10% FBS (Gibco-BRL, Grand Island, N.Y., USA) and antibiotics at 37° C. in a humidified atmosphere containing 5% CO2. RAW264.7 cells were plated in 6-well plates at a density of 4×10^5 cells and incubated for 24 h, then the cells were pretreated with different concentrations of SIN for 1 h before stimulating with LPS (100 ng/ml). A549 cells were seeded in 6-well plates at a density of 1×10^5 cells and incubated for 24 h, followed by pretreatment with SIN. A549 cells were then stimulated by IL-1β (1 ng/ml).
Whole-cell and nuclear proteins were obtained using RIPA lysis buffer (CST, Boston, Mass., USA) and Nuclear and Cytoplasmic Extraction Reagents kit from Thermo Scientific (Asheville, N.C., USA), respectively. For immunoblotting, proteins from whole-cell, cytoplasm, nuclear, and microsomal fractions were separated on SDS-PAGE, then transferred onto a nitrocellulose membrane from GE Healthcare Life Sciences (Buckinghamshire, UK), and incubated with 5% skimmed milk at room temperature for 1 h. […] The levels of protein expression were measured using Odyssey v3.0 software from Li-COR (Lincoln, Nebr., USA).

## COC1=C[C@@H]2[C@@H]3Cc4ccc(OC)c(O)c4[C@]2(CCN3C)CC1=O [SIN, sinomenine]
IL-6
  IL-6 production: significantly inhibited
COX-1
  COX-1 level in inflamed paw: did not produce observable effects
mPGES-1
  mPGES-1 protein expression: significantly and dose-dependently inhibited
